This note sets out measurements from the supplement of paper PMC10949913.

Common to all, as to conditions: 48 h
For experiment [1], the system named is CU-ACC2. The experiment in a line: area under concentration-response curve (viability) (AUC (a.u.)); higher = less active. The procedure, abridged:
(§1)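 Three adrenocortical carcinoma cell lines were seeded at 500–1,000 cells/well in 5 µL medium in 1,536-well plates. 23 nL of each MIPE 5.0 library compound was added at 11 concentrations. After 48 h (per the protocol name), CellTiter-Glo was added for 15 minutes at room temperature and luminescence was read. Signals were normalised per plate to vehicle and empty-well controls. AC50 and area under the curve came from fitted concentration-response curves, keeping only inhibitory or non-responding curve classes.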

Another experiment concerns CU-ACC1. The experiment is described as above. The procedure, abridged: as §1
The subject of experiment [2] is NCI-H295R. The experiment is described as above. In outline:
as §1

The subject of experiment [3] is CU-ACC2. Put plainly: AC50 viability; higher = less potent. In outline:
as §1

Experiment [4] has as its system NCI-H295R. Put plainly: AC50 viability; higher = less potent. In outline:
as §1

Turning to `Cc1cnc(Nc2ccc(F)cc2Cl)nc1-c1c[nH]c(C(=O)N[C@H](CO)c2cccc(Cl)c2)c1`, the “area under concentration-response curve” value in the experiment on CU-ACC2 [1] worked out at 572; with CU-ACC1 it was 500; with NCI-H295R [2] it was 532. Besides, the AC50 viability was 18.6 µM with CU-ACC2 [3] and 26.3 µM in the experiment on NCI-H295R [4].

Take `NCC(=O)NC1=CC(=CN=C1)\C2=N\N/3C(=O)\C=C(/N=C3S2)N4CCNCC4`: the “area under concentration-response curve” value in the experiment with CU-ACC2 [1] turned out to be 254; in the experiment on CU-ACC1, 269; in the experiment on NCI-H295R [2], 143. Besides, the AC50 viability was determined as 0.0934 µM with CU-ACC2 [3] and 0.00417 µM in the experiment on NCI-H295R [4].

With `N#CC(c1ccnc(NCCc2cccnc2)n1)c1nc2ccccc2s1` (configuration not stated), the “area under concentration-response curve” value in the experiment with CU-ACC2 [1] is 493; in the experiment on CU-ACC1, 509; with NCI-H295R [2] it was 410. For the same compound, the results for the AC50 viability in the experiment on CU-ACC2 [3] and in the experiment with NCI-H295R [4] were 16.6 µM and 20.9 µM, respectively.

With `Cc1cc(Nc2cc(N3CCN(C)CC3)nc(Sc3ccc(NC(=O)C4CC4)cc3)n2)[nH]n1`, the figures for the “area under concentration-response curve” value in the experiment on CU-ACC2 [1], in the experiment with CU-ACC1 and with NCI-H295R [2] were 569, 534 and 459, respectively. Moreover, the AC50 viability came to 20.9 µM in the experiment with CU-ACC2 [3] and 18.6 µM in the experiment on NCI-H295R [4].

Regarding `O=C1c2ccccc2-[n+]2ccc3c([nH]c4ccccc43)c21`, the “area under concentration-response curve” value in the experiment with CU-ACC2 [1] is 381; with CU-ACC1 it was 379; with NCI-H295R [2], 374. In addition, the AC50 viability in the experiment with CU-ACC2 [3] and with NCI-H295R [4] was 2.35 µM throughout.

For the compound `COc1cc2ncn(-c3cc(OCc4ccccc4[S+](C)(=O)[O-])c(C#N)s3)c2cc1OC`, the “area under concentration-response curve” value with CU-ACC2 [1] was determined as 399; with CU-ACC1, 351; in the experiment with NCI-H295R [2], 376. Also, the AC50 viability turned out to be 33.2 µM in the experiment on CU-ACC2 [3] and 37.2 µM in the experiment on NCI-H295R [4].

In the case of `CC(=O)O[C@H]1C(=O)[C@]2(C)[C@@H](O)C[C@H]3OC[C@@]3(OC(C)=O)C2[C@H](OC(=O)C4=CC=CC=C4)[C@]5(O)C[C@H](OC(=O)[C@H](O)[C@@H](NC(=O)C6=CC=CC=C6)C7=CC=CC=C7)\C(=C1/C5(C)C)C` (some centres not stated), the “area under concentration-response curve” value is 473 in the experiment on CU-ACC2 [1], 424 in the experiment on CU-ACC1 and 379 with NCI-H295R [2]. Moreover, the results for the AC50 viability in the experiment with CU-ACC2 [3] and with NCI-H295R [4] were 8.33 µM and 0.209 µM, respectively.

Turning to `CC[S+](=O)([O-])N1CC(CC#N)(n2cc(-c3ncnc4[nH]ccc34)cn2)C1`, the “area under concentration-response curve” value with CU-ACC2 [1] came to 530; in the experiment on CU-ACC1, 472; in the experiment on NCI-H295R [2] it was 513. In addition, the figures for the AC50 viability in the experiment with CU-ACC2 [3] and in the experiment with NCI-H295R [4] were 20.9 µM and 18.6 µM, respectively.

As for `Cn1ncc(Cl)c1-c1cc(C(=O)N[C@H](CN)Cc2ccc(F)c(F)c2)sc1Cl`, the “area under concentration-response curve” value came to 550 in the experiment on CU-ACC2 [1], 488 in the experiment on CU-ACC1 and 473 with NCI-H295R [2]. For the same compound, the AC50 viability in the experiment on CU-ACC2 [3] and in the experiment with NCI-H295R [4] was 14.8 µM in each case.

For `CC[C@@H]([C@H](C)O)N1\N=C/N(C1=O)C2=CC=C(C=C2)N3CCN(CC3)C4=CC=C(OCC5CO[C@@](C5)(C[N]6C=NC=N6)C7=C(F)C=C(F)C=C7)C=C4` (some centres not stated), the “area under concentration-response curve” value with CU-ACC2 [1] came out at 447; with CU-ACC1, 403; in the experiment with NCI-H295R [2] it was 423. The AC50 viability in the experiment on CU-ACC2 [3] came out at 7.42 µM; with NCI-H295R [4], 8.33 µM.

Regarding `Cc1c(O)cccc1C(=O)NC(CSc1ccccc1)C(O)CN1CC2CCCCC2CC1C(=O)NC(C)(C)C` (configuration not stated), the results for the “area under concentration-response curve” value in the experiment with CU-ACC2 [1], with CU-ACC1 and in the experiment with NCI-H295R [2] were 550, 406 and 561, respectively. Besides, the values for the AC50 viability with CU-ACC2 [3] and in the experiment on NCI-H295R [4] were 20.9 µM and 23.5 µM, respectively.

With `COc1ccc([S+](=O)([O-])N(C(C)=O)c2ccccc2/C=C/c2cc[n+]([O-])cc2)cc1`, the “area under concentration-response curve” value is 557 with CU-ACC2 [1], 482 with CU-ACC1 and 506 in the experiment on NCI-H295R [2]. In addition, the figures for the AC50 viability in the experiment on CU-ACC2 [3] and in the experiment on NCI-H295R [4] were 20.9 µM and 5.25 µM, respectively.

On to `CC(=O)O/N=C1/C(=C2\C(=O)Nc3cc(Br)ccc32)Nc2ccccc21`, for which the “area under concentration-response curve” value in the experiment on CU-ACC2 [1] was found to be 561; with CU-ACC1 it was 492; in the experiment on NCI-H295R [2] it was 525. In addition, the AC50 viability in the experiment on CU-ACC2 [3] was determined as 9.34 µM; in the experiment with NCI-H295R [4], 13.2 µM.

For `Nc1nc(N)c(N=O)c(OCC2CCCCC2)n1`, the entries for the “area under concentration-response curve” value in the experiment with CU-ACC2 [1], in the experiment with CU-ACC1 and with NCI-H295R [2] were 492, 466 and 451, respectively. The AC50 viability in the experiment with CU-ACC2 [3] was found to be 20.9 µM; in the experiment with NCI-H295R [4] it was 9.34 µM.

On to `O=C(O)c1ccc2cc(-c3ccc(O)c(C45CC6CC(CC(C6)C4)C5)c3)ccc2c1`, for which the “area under concentration-response curve” value with CU-ACC2 [1] amounted to 452; in the experiment on NCI-H295R [2], 474. For the same compound, the AC50 viability in the experiment with CU-ACC2 [3] came out at 5.25 µM; with NCI-H295R [4], 3.72 µM.

With `C=CC(=O)Nc1cccc(Oc2nc(Nc3ccc(N4CCN(C)CC4)c(F)c3)nc3[nH]ccc23)c1`, the “area under concentration-response curve” value in the experiment with CU-ACC2 [1] amounted to 557; in the experiment with CU-ACC1, 504; with NCI-H295R [2] it was 492. The AC50 viability is 18.6 µM with CU-ACC2 [3] and 20.9 µM in the experiment with NCI-H295R [4].

As for `COc1ccc(-c2ccc3ncc4c(c3c2)n(-c2ccc(N3CCNCC3)c(C(F)(F)F)c2)c(=O)n4C)cn1`, the “area under concentration-response curve” value in the experiment on CU-ACC2 [1] was 385; in the experiment on CU-ACC1, 376; in the experiment on NCI-H295R [2] it was 330. In addition, the AC50 viability is 1.86 µM in the experiment on CU-ACC2 [3] and 1.05 µM in the experiment with NCI-H295R [4].

On to `COc1cc2c(Nc3ccc(NC(=O)c4ccccc4)cc3)ncnc2cc1OCCCN1CCOCC1`, for which the “area under concentration-response curve” value in the experiment with CU-ACC2 [1] amounted to 566; with NCI-H295R [2], 505. For the same compound, the AC50 viability with CU-ACC2 [3] came to 20.9 µM; with NCI-H295R [4], 18.6 µM.

Regarding `COC1=CC(=C2C(=O)N(COC/3=C/C(=O)N4\C=C/C=C(OCCN5CCCCC5)\C4=N3)[S+]([O-])(=O)C2=C1)C(C)C`, the “area under concentration-response curve” value in the experiment with CU-ACC2 [1] came to 584; in the experiment with NCI-H295R [2], 541. Also, the AC50 viability in the experiment with CU-ACC2 [3] was 20.9 µM; with NCI-H295R [4], 37.2 µM.

For the compound `CC(C)COCC(CN(Cc1ccccc1)c1ccccc1)N1CCCC1` (configuration not stated), the “area under concentration-response curve” value with CU-ACC2 [1] amounted to 583; in the experiment on NCI-H295R [2], 536. Also, the AC50 viability with CU-ACC2 [3] turned out to be 26.3 µM; in the experiment on NCI-H295R [4] it was 23.5 µM.

On to `C[C@@H](Oc1cc(-c2cnn(C3CCNCC3)c2)cnc1N)c1c(Cl)ccc(F)c1Cl`, for which the results for the “area under concentration-response curve” value in the experiment with CU-ACC2 [1] and in the experiment on NCI-H295R [2] were 407 and 353, respectively. For the same compound, the AC50 viability was found to be 16.6 µM with CU-ACC2 [3] and 3.72 µM in the experiment with NCI-H295R [4].

Regarding `Cc1cc2c(cc1CC(=O)c1sccc1[S+](=O)([O-])Nc1onc(C)c1Cl)OCO2`, the “area under concentration-response curve” value came to 242 in the experiment with CU-ACC2 [1] and 127 with NCI-H295R [2]. Besides, the AC50 viability in the experiment on CU-ACC2 [3] is 0.105 µM; in the experiment with NCI-H295R [4], 0.00417 µM.

As to `COc1cc2nc(-c3cc(F)ccc3O)nc(N[C@@H]3CNC[C@H]3C(C)(C)O)c2cc1OC`, the “area under concentration-response curve” value in the experiment on CU-ACC2 [1] was determined as 430; in the experiment on NCI-H295R [2], 412. Also, the results for the AC50 viability in the experiment on CU-ACC2 [3] and in the experiment with NCI-H295R [4] were 4.17 µM and 3.72 µM, respectively.

For the compound `O=C(NCc1ccccc1)c1csc(Nc2ccncn2)n1`, the entries for the “area under concentration-response curve” value in the experiment with CU-ACC2 [1] and in the experiment on NCI-H295R [2] were 501 and 482, respectively. Further, the AC50 viability in the experiment on CU-ACC2 [3] is 18.6 µM; in the experiment with NCI-H295R [4], 23.5 µM.

For `Nc1ncnc2c1c(-c1cccc(OCc3ccccc3)c1)cn2[C@H]1C[C@H](CN2CCCC2)C1`, the “area under concentration-response curve” value in the experiment with CU-ACC2 [1] turned out to be 444; with NCI-H295R [2], 358. Besides, the AC50 viability in the experiment on CU-ACC2 [3] amounted to 14.8 µM; with NCI-H295R [4], 18.6 µM.

With `CCn1cc(-c2ccnc3[nH]c(-c4cccc(CN(C)C)c4)cc23)c(-c2ccc(NC(=O)N(C)C)cc2)n1`, the results for the “area under concentration-response curve” value in the experiment with CU-ACC2 [1] and in the experiment with NCI-H295R [2] were 578 and 514, respectively. The AC50 viability in the experiment with CU-ACC2 [3] and in the experiment on NCI-H295R [4] was 18.6 µM each time.

Turning to `COc1ccc(-c2c(-c3ccc(O)cc3O)n[nH]c2C)cc1`, the “area under concentration-response curve” value in the experiment on CU-ACC2 [1] is 224; with NCI-H295R [2], 71.5. The AC50 viability with CU-ACC2 [3] is 0.105 µM; in the experiment on NCI-H295R [4], 0.00296 µM.

With `C[N]1C=NC=C1[C@@](N)(C2=CC=C(Cl)C=C2)C3=CC=C4N(C)C(=O)\C=C(\C5=CC=CC(=C5)Cl)C4=C3`, the “area under concentration-response curve” value was 94.9 in the experiment on CU-ACC2 [1] and 88.8 with NCI-H295R [2]. Moreover, the figures for the AC50 viability with CU-ACC2 [3] and in the experiment on NCI-H295R [4] were 0.372 µM and 0.00105 µM, respectively.

For `CC1=N[NH]C=C1C2=CC\3=C(S2)C(=O)NC(=N3)\[C@@H]4CC5CCN4CC5`, the “area under concentration-response curve” value in the experiment on CU-ACC2 [1] was determined as 476; in the experiment on NCI-H295R [2], 529. Further, the results for the AC50 viability with CU-ACC2 [3] and in the experiment on NCI-H295R [4] were 10.5 µM and 23.5 µM, respectively.
